Patent US12313635B2, “Biomarker for thoracic aortic aneurysm” (THE REGENTS OF THE UNIVERSITY OF CALIFORNIA, priority 2018, dated 2025)

What was measured:
[1] = test system: eNOS; assay: Aortic superoxide production and eNOS uncoupling activity (L-NAME-sensitive superoxide) by electron spin resonance; assay type: in vivo, mice
Protocol: (§1) FA treatment started at 4 weeks of age, and lasted through the entire study period of 8 weeks till harvest.
Aortic superoxide was measured by ESR as previously described^19-22, 26-33. Briefly, freshly isolated aortas were homogenized on icein lysis buffer containing 1:100 protease inhibitor cocktail, and centrifuged at 12,000 g for 15 min. Protein content of the supernatant was determined using a protein assay kit (Bio-Rad, #500-0113, #500-0114, #500-0115). […]
(§2) Four weeks old heterozygous Fbn1^C1039G/+ male animals were treated with TGFβ neutralizing antibody (anti-TGFβ, clone 1D11, Bio X Cell) or isotype (IgG, clone MOPC21, Bio X Cell) as previously shown^40. […] Aortic superoxide production and eNOS uncoupling activity were determined after 4 weeks injection as described above.
Firstly, ESR was used to measure the aortic superoxide production with or without L-NAME, an inhibitor for NOS. If eNOS is functional and coupled, its inhibition by L-NAME will increase the measured superoxide due to lack of scavenging effects of NO on superoxide. However, if eNOS is dysfunctional and uncoupled, it produces superoxide and the inhibition with L-NAME will reduce measured superoxide.

[2] = test system: Ang II infused hph-1 mice and Ang II-infused apoE null mice; conditions: cited from earlier work
[3] = test system: Fbn1^C1039G/+ Marfan Syndrome (MFS) mice; assay: Ultrasound imaging (echocardiography) of aortic root and abdominal aorta diameters; assay type: in vivo; conditions: FA food (15 mg/kg/day from 4 weeks of age) vs chow diet
Excerpt: All experimental procedures were approved by the Institutional Animal Care and Usage committee at the University of California, Los Angeles (UCLA). Original heterozygous Fbn1^C1039G/+ male animals were purchased from Jackson Labs (Bar Harbor, ME, Strain B6.129-Fbn1^tm1Hcd/J, stock #012885). Heterozygous mice develop proximal aortic aneurysms, mitral valve thickenings, pulmonary alveolar septation defects, mild thoracic kyphosis, and skeletal myopathy, but 90% reportedly live to one year of age. This strain was backcrossed to C57BL/6 for more than nine generations by the donating laboratory^14. All pups were genotyped using PCR (FIG. 2) as per instructions by Jackson Labs.
as §1
Animals were anesthetized with isoflurane (˜[…]), and secured onto a temperature controlled table to maintain temperature at 37° C. Hair from the abdomen and the chest were removed with a hair removal cream (Nair). […] All images were recorded and saved for later offline aortic dimension analysis.
as §2

[4] = test system: DHFR; assay: Western blotting of DHFR and eNOS expression in aortic endothelial cells; assay type: in vivo, mice; conditions: aortic ECs of Fbn1^+/+ and Fbn1^C1039G/+ animals after FA treatment
Protocol: as §1
Western blotting was performed following standard protocols, using 12.5% SDS/PAGE gel and nitrocellulose membranes. Primary antibodies and their dilutions used were: DHFR (1:500, Novus Biologicals, H00001719-MO1), β-actin (1:3000, Sigma-Aldrich, A2066), eNOS (1:2000, BD Transduction Laboratories, 610297), TGFβ (1:500, Abcam, ab92486), NOX4 (1:300, Novus Biologicals, NB110-58849SS), and GTPCH 1 (1:500, Abbiotec, 250680).
Endothelial cells (ECs) were isolated from freshly prepared aortas, Western blot was used to detect DHFR expression in aortic ECs and HPLC was performed to assess DHFR activity in the isolated ECs and the denuded aortas of the Fbn1^+/+ and Fbn1^C1039G/+ animals. […] As shown in FIGS. 6D & 6E, DHFR activity was measured via HPLC from both the isolated ECs (FIG. 6D) and the denuded aortas (FIG. 6E).

[5] = test system: NO bioavailability in aortic tissues; assay: Aortic NO bioavailability by electron spin resonance; assay type: in vivo; conditions: aortas of Fbn1^C1039G/+ mice, age 8 and 12 weeks, oral FA
Protocol: FA treatment started at 4 weeks of age, and lasted through the entire study period of 8 weeks till harvest. Aortic N O production was also measured using ESR as previous described^19-22, 26-29, 32-34. Briefly, freshly isolated aortas were cut into 2 mm rings, and then incubated in freshly prepared NO specific spin trap Fe^2+(DETC)2 (0.5 mmol/L) in nitrogen bubbled, modified Krebs/HEPES buffer (as described above) at 37° C. for 60 min, in the presence of calcium ionophore A23187 (10 μmol/L). The aortic rings were then snap frozen in liquid nitrogen and loaded into a finger Dewarfor measurement with ESR. The instrument settings were as the following: Center field, 3440; Sweep width, 100 G: microwave frequency, 9.796 GHz; microwave power 13.26 mW; modulation amplitude, 9.82 G; 512 points of resolution; and receiver gain 356.

[6] = test system: H4B; assay: Aortic and plasma tetrahydrobiopterin (H4B) levels by HPLC; assay type: in vivo; conditions: Fbn1^+/+ and Fbn1^C1039G/+ mice, oral FA vs chow diet
Protocol: as §1
Aortic H4B and plasma H4B were measured using HPLC as previously described^19-22, 26, 27, 32, 33, 35-37. For the aorta, freshly isolated aortas were lysed in H4B lysis buffer (0.1 M phosphoric acid, 1 mM EDTA, 10 mM dl-dithiothreitol) and then centrifuged at 12,000 g for 3 min at 4° C. in the dark. For plasma, equal volumes of plasma and H4B lysis buffer were mixed and incubated on ice for 20 min in the dark and then centrifuged at 12,000 g for 3 min at 4° C. in the dark. The supernatant for both the aorta and plasma was subjected to oxidation in acidic (0.2 M trichloroacetic acid with 2.5% 12 and 10% KI) and alkalytic solutions (0.1 M NaOH with 0.9% 12 and 1.5% KI). After centrifugation, 10 μl of the supernatant was injected into a HPLC system equipped with a fluorescent detector (SHIMADZU AMERICA INC, Carlsbad, CA, USA). Excitation and emission wavelengths of 350 nm and 450 nm were used to detect H4B and its oxidized species. H4B concentration was calculated as previously described ^38, 39.

[7] = test system: DHFR; assay: DHFR activity by HPLC in isolated ECs and denuded aortas; assay type: in vivo; conditions: Fbn1^C1039G/+ and Fbn1^+/+ mice, oral FA treatment
Protocol: as §1
DHFR activity was measured from isolated EC or denuded aorticring lysates as previously described^19, 22, 26. Briefly, lysates were incubated in a DHFR assay buffer (0.1 mol/L potassium phosphate dibasic, 1 mmol/L DTT, 0.5 mmol/L KCl, 1 mmol/L EDTA, and 20 mmol/L sodium ascorbate at pH 7.4) with NADPH (200 μmol/L) and the substrate dihydrofolate (50 μmol/L) at 37° C. for 20 min in the dark. The product of the reaction, tetrahydrofolate (THF), was measured using a HPLC system (SHIMADZU AMERICA INC, Carlsbad, CA, USA) with a C-18 column (Alltech, Deerfield, MA, USA) using water based mobile phase consisting of 7% acetonitrile and 5 mmol/L of potassium phosphate dibasic at pH 2.3. The signal was detected using a fluorescent detector at 295 nm excitation and 365 nm emission. The THF content was calculated against a standard curve prepared using THF solutions in assay buffer. Data are presented as nmol production of THF per min per mg protein.

Nc1nc2ncc(CNc3ccc(C(=O)N[C@@H](CCC(=O)O)C(=O)O)cc3)nc2c(=O)[nH]1 [FA, folic acid]
L-NAME-sensitive superoxide production (eNOS uncoupling activity) ([1]; aortas of Fbn1^C1039G/+ mice at 8 and 12 week old, oral FA): completely attenuated | superoxide production ([1]; aortas of Fbn1^C1039G/+ mice, FA diet): reduce superoxide production | AAA formation ([2]; Ang II infused hph-1 mice and Ang II-infused apoE null mice, oral administration): completely or largely attenuated | plasma and tissue H4B levels ([2]; angiotensin II infused hph-1 and apoE null mice (AAA models)): restored | size (diameter) of abdominal aortas [3]: substantially smaller | size (diameter) of aortic roots [3]: substantially smaller | expression of DHFR [4]: increased | NO bioavailability [5]: markedly improved | H4B levels in plasma [6]: substantially restored | H4B levels in the aortas [6]: substantially restored | DHFR activity in the denuded aortas [7]: substantially increased | DHFR activity in the isolated ECs [7]: substantially increased
